Experimental data reported in patent publication US20190105367A1, “ANTIMICROBIAL 4-OXOQUINOLIZINES” (Emergent Product Development Gaithersburg Inc., priority 2011, published 2019).
Values after ≈ are worked out from the molar mass of the structure shown. Like-named read-outs stand apart in the source and are kept apart here.

Columns and labels:
[1] = test system: A. baumannii A401; assay: Preliminary MBC without and with sub-inhibitory polymyxin B (Example 4); assay type: cell-based, Acinetobacter baumannii; settings: Acinetobacter baumannii
[2] = test system: A. baumannii A329; assay: MIC without and with sub-inhibitory polymyxin B (Example 4); assay type: cell-based, Acinetobacter baumannii; settings: A. baumannii A329; +0.06 μg/ml PB; 2nd experiment
[3] = test system: A. baumannii A387; assay: as above; assay type: cell-based, Acinetobacter baumannii; settings: for MIC without PB/MIC + PB: A. baumannii A387; for MIC: Acinetobacter baumannii
[4] = test system: A. baumannii A387; assay: Preliminary MBC without and with sub-inhibitory polymyxin B (Example 4); assay type: cell-based, Acinetobacter baumannii; settings: Acinetobacter baumannii
[5] = test system: A. baumannii A390; assay: MIC without and with sub-inhibitory polymyxin B (Example 4); assay type: cell-based, Acinetobacter baumannii; settings: +0.06 μg/ml PB, 2nd experiment
[6] = test system: A. baumannii NCTC 13301; assay: as above; assay type: cell-based, Acinetobacter baumannii; settings: +[…] PB, 2nd experiment
[7] = test system: A. baumannii A489; assay: as above; assay type: cell-based, Acinetobacter baumannii; settings: for MIC without PB/MIC + PB: A. baumannii A489; for MIC: Acinetobacter baumannii
[8] = test system: A. baumannii A489; assay: Preliminary MBC without and with sub-inhibitory polymyxin B (Example 4); assay type: cell-based, Acinetobacter baumannii; settings: Acinetobacter baumannii, preliminary MBC
[9] = test system: A. baumannii A473; assay: as above; assay type: cell-based, Acinetobacter baumannii; settings: Acinetobacter baumannii, A473, A. baumannii A473, +0.06 μg/ml PB, 2nd experiment, read-out: MBC
In short: (§1)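 After plating, cultures are held at 37° C for 18-20 hours; the endpoint is then scored by comparing colony growth against the positive control, with MBC defined as the lowest concentration showing roughly 90% reduction.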

[10] = test system: A. baumannii A14; assay: as above; assay type: cell-based, Acinetobacter baumannii; settings: A. baumannii A14, +0.06 μg/ml PB, 2nd experiment
In short: as §1

[11] = test system: A. baumannii NCTC 13301; assay: as above; assay type: cell-based, Acinetobacter baumannii; settings: Acinetobacter baumannii
In short: as §1

[12] = test system: A. baumannii A390; assay: as above; assay type: cell-based, Acinetobacter baumannii; settings: Acinetobacter baumannii, A390, A. baumannii A390, +0.06 μg/ml PB, 2nd experiment, read-out: MBC
In short: as §1

[13] = test system: A. baumannii A14; assay: MIC without and with sub-inhibitory polymyxin B (Example 4); assay type: cell-based, Acinetobacter baumannii; settings: 2nd experiment
[14] = test system: A. baumannii A472; assay: as above; assay type: cell-based, Acinetobacter baumannii; settings: for MIC: Acinetobacter baumannii
[15] = test system: A. baumannii A473; assay: as above; assay type: cell-based, Acinetobacter baumannii; settings: A. baumannii A473; +0.06 μg/ml PB; 2nd experiment
[16] = test system: A. baumannii A329; assay: Preliminary MBC without and with sub-inhibitory polymyxin B (Example 4); assay type: cell-based, Acinetobacter baumannii; settings: Acinetobacter baumannii, A329, A. baumannii A329, +0.06 μg/ml PB, 2nd experiment, read-out: MBC
[17] = test system: A. baumannii NCTC 13301; assay: MIC without and with sub-inhibitory polymyxin B (Example 4); assay type: cell-based, Acinetobacter baumannii
[18] = test system: A. baumannii A472; assay: Preliminary MBC without and with sub-inhibitory polymyxin B (Example 4); assay type: cell-based, Acinetobacter baumannii; settings: Acinetobacter baumannii, preliminary MBC
[19] = test system: A. baumannii ATCC 19606; assay: MIC without and with sub-inhibitory polymyxin B (Example 4); assay type: cell-based, Acinetobacter baumannii; settings: A. baumannii ATCC 19606
[20] = test system: strains of A. baumannii and one strain of Acinetobacter sp.; assay: MIC with sub-inhibitory concentrations (0.25x MIC) of polymyxin B, panel of Acinetobacter strains (Example 4); assay type: cell-based
[21] = test system: A. baumannii A401; assay: MIC without and with sub-inhibitory polymyxin B (Example 4); assay type: cell-based, Acinetobacter baumannii; settings: for MIC: Acinetobacter baumannii
[22] = test system: Acinetobacter sp. (H064200250); assay: as above; assay type: cell-based; settings: for MIC: Acinetobacter
[23] = test system: A. baumannii J2; assay: as above; assay type: cell-based, Acinetobacter baumannii; settings: for MIC without PB/MIC + PB: A. baumannii J2; for MIC: Acinetobacter baumannii
[24] = ratio, PB 0.06 μg/ml, 1st experiment
[25] = A. baumannii A14, +0.06 μg/ml PB

Cc1c(-c2cc(F)c(N)cc2F)ccn2c(=O)c(C(=O)O)cc(C3CC3)c12 [Compound 2, 8-(4-amino-2,5-difluorophenyl)-1-cyclopropyl-9-methyl-4-oxo-4H-quinolizine-3-carboxylic acid]
MBC ([1]; A401, A baumannii A 401, +0.06 μg/ml PB, 2nd experiment, read-out: MBC): ≤ 0.03 µg/mL
MBC ([1]; A401, read-out: MBC +0.06 μg/ml PB, A baumannii A 401, +0.06 μg/ml polymyxin B, 1st experiment): ≤ 0.03 µg/mL
MIC without PB/MIC + PB [2]: 16
MIC without PB/MIC + PB ([3]; +0.06 μg/ml PB, 2nd experiment): ≥32
MIC without PB/MIC + PB [3, 24]: ≥16
MIC ([3]; A387, A. baumannii A387, +0.06 μg/ml PB, 2nd experiment, read-out: MIC): ≤ 0.03 µg/mL
MIC ([3]; A387, read-out: MIC +0.06 μg/ml PB, A. baumannii A387, +0.06 μg/ml polymyxin B, 1st experiment): ≤ 0.03 µg/mL
MBC ([4]; A387, A. baumannii A387, +0.06 μg/ml PB, 2nd experiment, read-out: MBC): ≤ 0.03 µg/mL
MBC ([4]; A387, read-out: MBC +0.06 μg/ml PB, A. baumannii A387, +0.06 μg/ml polymyxin B, 1st experiment): ≤ 0.03 µg/mL
MIC without PB/MIC + PB ([5]; A. baumannii A390): ≥512
MIC ([5]; Acinetobacter baumannii, A390, A. baumannii A390, read-out: MIC): ≤ 0.03 µg/mL
MIC without PB/MIC + PB ([6]; A. baumannii NCTC 13301): ≥512
MIC ([6]; Acinetobacter baumannii, NCTC13301, A. baumannii NCTC 13301, read-out: MIC): ≤ 0.03 µg/mL
MIC without PB/MIC + PB ([7]; +[…] PB, 2nd experiment): ≥128
MIC without PB/MIC + PB ([7]; ratio, PB […], 1st experiment): ≥64
MIC ([7]; A489, A. baumannii A489, +[…] PB, 2nd experiment, read-out: MIC): ≤ 0.03 µg/mL
MIC ([7]; A489, read-out: MIC +[…] PB, A. baumannii A489, +[…] polymyxin B, 1st experiment): ≤ 0.03 µg/mL
MBC ([8]; A489, A. baumannii A489, +[…] PB, 2nd experiment, read-out: MBC): ≤ 0.03 µg/mL
MBC ([8]; A489, read-out: MBC +[…] PB, A. baumannii A489, +[…] polymyxin B, 1st experiment): ≤ 0.03 µg/mL
MBC [9]: 0.125 µg/mL (≈ 0.338 µM)
MBC [10]: 0.06 µg/mL (≈ 0.162 µM)
MBC ([11]; NCTC13301, A. baumannii NCTC 13301, +[…] PB, preliminary MBC, 2nd experiment, read-out: MBC): ≤ 0.03 µg/mL
MBC ([11]; NCTC13301, read-out: MBC +[…] PB): ≤ 0.03 µg/mL
MBC [12]: 0.06 µg/mL (≈ 0.162 µM)
MIC [13, 25]: 0.06 µg/mL (≈ 0.162 µM)
MIC without PB/MIC + PB [13, 25]: 256
MIC ([13]; Acinetobacter baumannii, A14, A. baumannii A14, without PB, read-out: MIC): 16 µg/mL (≈ 43.2 µM)
MIC without PB/MIC + PB ([14]; A. baumannii A472, ratio, PB […], 1st experiment): ≥128
MIC ([14]; A472, A. baumannii A472, +[…] PB, 2nd experiment, read-out: MIC): ≤ 0.03 µg/mL
MIC ([14]; A472, read-out: MIC +[…] PB, A. baumannii A472, +[…] polymyxin B, 1st experiment): ≤ 0.03 µg/mL
MIC without PB/MIC + PB [15]: 64
MBC [16]: 0.5 µg/mL (≈ 1.35 µM)
MIC without PB/MIC + PB ([17]; A. baumannii NCTC 13301, ratio, PB […], 1st experiment): ≥512
MIC ([17]; Acinetobacter baumannii, NCTC13301, read-out: MIC +[…] PB): ≤ 0.03 µg/mL
MBC ([18]; A472, A. baumannii A472, +[…] PB, 2nd experiment, read-out: MBC): ≤ 0.03 µg/mL
MBC ([18]; A472, read-out: MBC +[…] PB, A. baumannii A472, +[…] polymyxin B, 1st experiment): ≤ 0.03 µg/mL
MIC without PB/MIC + PB ([19]; +0.06 μg/ml PB, 2nd experiment): ≥4
MIC without PB/MIC + PB [19, 24]: ≥1
MIC range with PB (0.25x MIC) Oct. 1, 2008 n = 8 ([20]; 1st experiment, […] polymyxin B, ATCC 19606, A329, A390 and A473 not taken): ≤0.03 to 1 µg/mL
MIC range with PB (0.25x MIC) Oct. 14, 2008 n = 11 ([20]; 2nd experiment, 0.06 μg/ml polymyxin B, all strains except the ATCC strain): ≤0.03 to 0.5 µg/mL
MIC without PB/MIC + PB ([21]; A baumannii A 401, ratio, PB 0.06 μg/ml, 1st experiment): ≥128
MIC ([21]; A401, A baumannii A 401, +0.06 μg/ml PB, 2nd experiment, read-out: MIC): ≤ 0.03 µg/mL
MIC ([21]; A401, read-out: MIC +0.06 μg/ml PB, A baumannii A 401, +0.06 μg/ml polymyxin B, 1st experiment): ≤ 0.03 µg/mL
MIC without PB/MIC + PB ([22]; Acinetobacter spp. H064200250 (OXA51), +[…] PB, 2nd experiment): ≥128
MIC without PB/MIC + PB ([22]; Acinetobacter spp. H064200250, ratio, PB […], 1st experiment): ≥128
MIC ([22]; Acinetobacter spp. H064200250 (OXA51), +[…] PB, 2nd experiment, read-out: MIC): ≤ 0.03 µg/mL
MIC ([22]; read-out: MIC +[…] PB, Acinetobacter spp. H064200250, +[…] polymyxin B, 1st experiment): ≤ 0.03 µg/mL
MIC without PB/MIC + PB ([23]; +[…] PB, 2nd experiment): ≥128
MIC without PB/MIC + PB ([23]; ratio, PB […], 1st experiment): ≥128
MIC ([23]; J2, A. baumannii J2, +[…] PB, 2nd experiment, read-out: MIC): ≤ 0.03 µg/mL
MIC ([23]; J2, read-out: MIC +[…] PB, A. baumannii J2, +[…] polymyxin B, 1st experiment): ≤ 0.03 µg/mL
